These results are taken from patent publication US12139464B2, “Simplified structural mimetics of AIPS as quorum sensing inhibitors” (Wisconsin Alumni Research Foundation, priority 2016, dated 2024).

Data set [1] deals with S. aureus AgrC in group-I (Staphylococcus aureus, UniProt A0A0H2XKA3). Put plainly: AgrC inhibition YFP reporter gene assay, S. aureus group-I (AH1677). In kind it is cell-based. To be noted: for AgrC activity, preliminary screening: 10 μM where stated, YFP fluorescence relative to 1% DMSO control. The procedure:
(§1) Reporter Gene Assays: The peptidomimetics were assayed for AgrC I-IV inhibition using the four YFP reporter strains listed in Table 1. Peptide stock solutions were diluted with DMSO in serial dilutions, and 2 μL of the diluted solution was added to each of the wells in a black, clear-bottom 96-well microtiter plate (Costar). An overnight culture of S. aureus YFP strain (Table 1) was diluted 1:50 with fresh BHI (pH 7.35). A […] of diluted culture was added to each well of the microtiter plate containing peptide (resulting in a 1% DMSO solution). Plates were incubated at 37° C. with shaking at 200 rpm for 24 h. Fluorescence (excitation 500 nm/emission 540 nm) and optical density at 600 nm (OD600) of each well were then recorded using a BioTek Synergy 2 plate reader. […] Full dose response curves are provided in Figures S3A-D, S4A-D, S5A-D, S6A-D and S7A-F.
(§2) A first compound library of AIP mimetics was screened for AgrC modulatory activity in all four groups of S. aureus using strains containing yfp reporter. These strains are summarized in Table 1, and include the multidrug-resistant strain USA300 LAC.[17] In these S. aureus reporters, binding of the native AIP to AgrC activates YFP production and can be measured using fluorescence. Thus, compounds capable of inhibiting native AIP binding produce a reduction in fluorescence. Preliminary compound screening was performed at 10 μM in each strain; the full results of preliminary screening are shown in FIGS. 4A-4D. Key findings from these initial screens are summarized here. To simplify the discussion, the full library will be described as three smaller sub-libraries. In the first sub-library (termed nxLX), there is a linker with n=x methylenes, residue 3 is Leu, and residue 4 (X) is Leu, Ile, or Phe (FIG. 2A). The second and third sub-libraries (nxIX and nxFX) are identical to the first sub-library except that there is an Ile or Phe at residue 3, respectively.
(In a reporter assay the amount or activity of a reporter protein is the signal.)

Data set [2] deals with S. aureus AgrC in group-IV (Staphylococcus aureus, UniProt Q309Z2). Put plainly: AgrC inhibition YFP reporter gene assay, S. aureus group-IV (AH1872). Type of data set: cell-based. The note with it: for AgrC activity, preliminary screening: 10 μM where stated, YFP fluorescence relative to 1% DMSO control. The procedure:
as §1, §2

Data set [3] deals with S. aureus AgrC in group-III (Staphylococcus aureus, UniProt O33590). Put plainly: AgrC inhibition YFP reporter gene assay, S. aureus group-III (AH1747). To be noted: for AgrC activity, preliminary screening: 10 μM where stated, YFP fluorescence relative to 1% DMSO control. Type of data set: cell-based. The procedure: as §1, §2
The target in data set [4] is S. aureus AgrC in group-II (Staphylococcus aureus, UniProt O33587). Briefly: AgrC inhibition YFP reporter gene assay, S. aureus group-II (AH430). Type of data set: cell-based. To be noted: for AgrC activity, preliminary screening: 10 μM where stated, YFP fluorescence relative to 1% DMSO control. The procedure:
as §1, §2

A short description of data set [5]: Solubility in water. In kind it is physicochemical.
Setting [6] is: read-out: IC50 Group-I, Table 3, against S. aureus AgrC.
[7] abbreviates: read-out: IC50 Group-IV, Table 3, against S. aureus AgrC.
Where [8] appears, read: read-out: IC50 Group-III, Table 3, against S. aureus AgrC.
[9] abbreviates: read-out: IC50 Group-II, Table 3, against S. aureus AgrC.
The mark [10] stands for this setting: read-out: Group-I IC50, 95% CI, YFP reporter strain, 24 h, value (95% CI).
The mark [11] stands for this setting: read-out: Group-III IC50, 95% CI, YFP reporter strain, 24 h, value (95% CI).
Setting [12] is: read-out: Group-II IC50, 95% CI, YFP reporter strain, 24 h, value (95% CI).
The mark [13] stands for this setting: read-out: Group-IV IC50, 95% CI, YFP reporter strain, 24 h, value (95% CI).

Entries after “also recorded” stand apart in the source; their conditions may differ. Like-named read-outs stand apart in the source and are kept apart here. Positions of bridges follow the written chain, without caps; N, C: chain ends. Non-standard residues stand in square brackets, D forms with d. Residues, ends and D or L forms follow the SMILES beside them. Phe(3-Cl) = N[C@@H](Cc1cccc(Cl)c1)C(=O)O; Phe(4-Cl) = N[C@@H](Cc1ccc(Cl)cc1)C(=O)O; Phe(3-F) = N[C@@H](Cc1cccc(F)c1)C(=O)O; Cha = N[C@@H](CC1CCCCC1)C(=O)O; AEEA = NCCOCCOCC(=O)O; Dap = NC[CH](N)C(=O)O; Aoc = NCCCCCCCC(=O)O

Take `CC(=O)N[C@H]1CSC(=O)[C@H](Cc2cccc(F)c2)NC(=O)[C@H](Cc2ccccc2)NC(=O)COCCOCCNC1=O` [n7OF3fF] (Ac-C[AEEA]F[Phe(3-F)]; thioester 1-C): the IC50 (in general, the point on the concentration scale where inhibition reaches its midpoint) in data set [1] (setting [6]) is 40 nM; in data set [2] (setting [7]) it was greater than 5000 nM; in data set [3] (setting [8]), 171 nM; in data set [4] (setting [9]), 1210 nM.

In the case of `CC(=O)N[C@H]1CSC(=O)[C@H](Cc2ccc(Cl)cc2)NC(=O)[C@H](Cc2ccccc2)NC(=O)COCCOCCNC1=O` [n7OF4clF] (Ac-C[AEEA]F[Phe(4-Cl)]; thioester 1-C), the IC50 in data set [1] (setting [6]) was 2590 nM; in data set [2] (setting [7]), greater than 5000 nM; in data set [3] (setting [8]) it was 2480 nM; in data set [4] (setting [9]) it was 113 nM.

As for `CC(=O)N[C@H]1CNC(=O)[C@H](Cc2ccccc2)NC(=O)[C@H](Cc2ccccc2)NC(=O)CCCCCCCCNC1=O` [n8FF amide], the “AgrC activity, preliminary screening” value in data set [1] (group-I) is given as “far less active”; in data set [2] (group-IV), “virtually no inhibition”; in data set [3] (group-III) it was “minimal levels”; in data set [4] (group-II), “minimal levels”. Moreover, the results for the 50% inhibitory concentration (IC50) in data set [1] (setting [10]), in data set [3] (setting [11]) and in data set [4] (setting [12]) were 4740 nM, 2610 nM and 1340 nM, respectively. Also, the “water solubility” value in data set [5] is recorded as “markedly more soluble in water than their parent thiolactones”.

For `CC(=O)NC1CNC(=O)C(Cc2ccccc2)NC(=O)C(Cc2ccccc2)NC(=O)COCCOCCNC1=O` (stereo not shown) [n7OFF amide] (Ac-[Dap][AEEA]FF; lactam 1-C; configuration not given here), the “AgrC activity, preliminary screening” value in data set [1] (group-I), in data set [2] (group-IV), in data set [3] (group-III) and in data set [4] (group-II) was “no significant activity” in each case. In addition, the 50% inhibitory concentration (IC50) in data set [1] (setting [10]), in data set [2] (setting [13]), in data set [3] (setting [11]) and in data set [4] (setting [12]) was greater than 10000 nM throughout. The “water solubility” value in data set [5] is given as “markedly more soluble in water than their parent thiolactones”.

In the case of `CC(=O)N[C@H]1CSC(=O)[C@H](Cc2cccc(F)c2)NC(=O)[C@H](CC2CCCCC2)NC(=O)COCCOCCNC1=O` [n7OCha3fF] (Ac-C[AEEA][Cha][Phe(3-F)]; thioester 1-C), the IC50 in data set [1] (setting [6]) was 109 nM; in data set [2] (setting [7]), 597 nM; in data set [3] (setting [8]) it was 35 nM; in data set [4] (setting [9]), 1380 nM.

As to `CC(=O)N[C@H]1CSC(=O)[C@H](Cc2cccc(F)c2)NC(=O)[C@H](CC2CCCCC2)NC(=O)CCCCCCCNC1=O` [n7Cha3fF] (Ac-C[Aoc][Cha][Phe(3-F)]; thioester 1-C), the concentration for half-maximal inhibition (IC50) was found to be 429 nM in data set [1] (setting [6]), 1160 nM in data set [2] (setting [7]), 19 nM in data set [3] (setting [8]) and 2340 nM in data set [4] (setting [9]).

On to `CC(=O)N[C@H]1CSC(=O)[C@H](Cc2ccccc2)NC(=O)[C@H](Cc2ccccc2)NC(=O)COCCOCCNC1=O` [n7OFF] (Ac-C[AEEA]FF; thioester 1-C), for which the “more potent than n7FF” value in data set [1] (group-I) is roughly 2 fold. Besides, the “AgrC activity, preliminary screening” value is “approximately as active as t-AIP-II, n7FF, and n8FF” in data set [1] (group-I); “modestly active” in data set [2] (group-IV); “modestly active” in data set [3] (group-III); “approximately as active as t-AIP-II, n7FF, and n8FF” in data set [4] (group-II). Besides, the 50% inhibitory concentration (IC50) in data set [1] (setting [10]) worked out at 181 nM; in data set [1] (setting [6]) it was 181 nM; in data set [2] (setting [13]), 5940 nM; in data set [2] (setting [7]), 5940 nM; in data set [3] (setting [11]), 332 nM; in data set [3] (setting [8]), 332 nM. In addition, the 50% inhibitory concentration (IC50) in data set [4] (setting [12]) and in data set [4] (setting [9]) was 583 nM in each case. In addition, in data set [5], the “more soluble in water than n7FF” value is “approximately 100 fold”.

Consider `CC(=O)N[C@H]1CSC(=O)[C@H](Cc2ccccc2)NC(=O)[C@H](Cc2ccccc2)NC(=O)CCCCCCCNC1=O` [n7FF] (Ac-C[Aoc]FF; thioester 1-C), for which the “IC50 relative to that of t-AIP-II” value in data set [1] (group-I), in data set [2] (group-IV), in data set [3] (group-III) and in data set [4] (group-II) was 3-7 fold in each case. For the same compound, the “AgrC activity, preliminary screening” value in data set [1] (group-I), in data set [2] (group-IV), in data set [3] (group-III) and in data set [4] (group-II) was “minimal levels” throughout. In addition, the IC50 in data set [1] (setting [10]) came out at 340 nM; in data set [2] (setting [13]), 985 nM; in data set [3] (setting [11]), 34.8 nM; in data set [4] (setting [12]) it was 495 nM. Further, the “water solubility” value in data set [5] is recorded as “relatively low water solubilities; also recorded: less soluble than AIP-III D4A in water”.

Consider `CC(=O)N[C@H]1CSC(=O)[C@H](Cc2ccccc2)NC(=O)[C@H](CC2CCCCC2)NC(=O)COCCOCCNC1=O` [n7OChaF] (Ac-C[AEEA][Cha]F; thioester 1-C), for which the IC50 in data set [1] (setting [6]) was 998 nM; in data set [2] (setting [7]), 1080 nM; in data set [3] (setting [8]), 205 nM; in data set [4] (setting [9]) it was 790 nM.

On to `CC(=O)NC1CSC(=O)C(Cc2ccccc2)NC(=O)C(Cc2ccccc2)NC(=O)CCCCCCCCNC1=O` (stereo not shown) [n8FF], for which the IC50 was found to be 468 nM in data set [1] (setting [10]), 3490 nM in data set [2] (setting [13]), 125 nM in data set [3] (setting [11]) and 479 nM in data set [4] (setting [12]). The “less potent than n7FF” value in data set [2] (group-IV) and in data set [3] (group-III) was 4 fold each time. Besides, in data set [5], the “water solubility” value is on record as “relatively low water solubilities; also recorded: less soluble than AIP-III D4A in water”.

Consider `CC(=O)N[C@H]1CSC(=O)[C@H](Cc2cccc(Cl)c2)NC(=O)[C@H](Cc2ccccc2)NC(=O)COCCOCCNC1=O` [n7OF3clF] (Ac-C[AEEA]F[Phe(3-Cl)]; thioester 1-C), for which the values for the concentration for half-maximal inhibition (IC50) in data set [1] (setting [6]), in data set [3] (setting [8]) and in data set [4] (setting [9]) were 225 nM, 1140 nM and 217 nM, respectively.

Regarding `CC(=O)NC1CNC(=O)C(Cc2ccccc2)NC(=O)C(Cc2ccccc2)NC(=O)CCCCCCCNC1=O` (stereo not shown) [n7FF amide] (Ac-[Dap][Aoc]FF; lactam 1-C; configuration not given here), the “AgrC activity, preliminary screening” value in data set [1] (group-I) is “far less active”; in data set [2] (group-IV) it was “virtually no inhibition”; in data set [3] (group-III), “minimal levels”; in data set [4] (group-II) it was “minimal levels”. For the same compound, the 50% inhibitory concentration (IC50) in data set [1] (setting [10]) turned out to be 3940 nM; in data set [3] (setting [11]), 573 nM; in data set [4] (setting [12]), 2200 nM. Besides, the “water solubility” value in data set [5] is “markedly more soluble in water than their parent thiolactones”.
